The record followed here is ChEMBL document CHEMBL1944628, “Bioanalytical Screening of Riboflavin Antagonists for Targeted Drug Delivery - A Thermodynamic and Kinetic Study” (ACS Med Chem Lett, 2011).

The target of experiment [1] is T1, Riboflavin-binding protein (Gallus gallus) (UniProt P02752).
T1 sequence (whole entry): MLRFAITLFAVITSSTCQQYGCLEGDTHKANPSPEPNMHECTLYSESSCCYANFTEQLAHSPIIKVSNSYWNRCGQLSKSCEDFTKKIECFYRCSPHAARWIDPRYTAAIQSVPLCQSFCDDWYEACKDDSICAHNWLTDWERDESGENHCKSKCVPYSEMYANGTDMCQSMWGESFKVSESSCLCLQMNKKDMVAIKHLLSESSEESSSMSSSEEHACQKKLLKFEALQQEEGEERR
Put plainly: Competitive inhibition of chicken riboflavin binding protein binding to immobilized ligand at 500 uM by surface plasmon resonance assay.

For experiment [2], the target named is T2, Riboflavin-binding protein (Gallus gallus, UniProt P02752).
T2 sequence (P02752 whole entry): T1 sequence (whole entry)
Put plainly: Binding affinity to chicken riboflavin binding protein by surface plasmon resonance assay. On the technique in general: Surface plasmon resonance follows binding to a sensor surface in real time, without labels.

The target in experiment [3] is T1, Riboflavin-binding protein (Gallus gallus). As to the kind of experiment: Competitive inhibition of chicken riboflavin binding protein binding to immobilized ligand by surface plasmon resonance assay.
In experiment [4] the target is T2, Riboflavin-binding protein. As to the kind of experiment: Binding affinity to chicken riboflavin binding protein assessed as dissociation constant at pH 7.4 in phosphate buffer by isothermal titration calorimetric assay. A general note: In ITC the heat of successive injections is recorded.
Experiment [5] concerns the target T2, Riboflavin-binding protein. As to the kind of experiment: Binding affinity to chicken riboflavin binding protein assessed as dissociation constant at pH 7.4 in 0.1 M phosphate buffer by isothermal titration calorimetric assay.
Experiment [6] addresses T2, Riboflavin-binding protein. As to the kind of experiment: Binding affinity to chicken riboflavin binding protein assessed as dissociation constant at pH 4 in 0.1 M NaAc by isothermal titration calorimetric assay.
Experiment [7] deals with T2, Riboflavin-binding protein. As to the kind of experiment: Binding affinity to chicken riboflavin binding protein assessed as dissociation constant at pH 9 in 0.1 M Tris by isothermal titration calorimetric assay.
Experiment [8] concerns the target T2, Riboflavin-binding protein. As to the kind of experiment: Competitive inhibition of chicken riboflavin binding protein by surface plasmon resonance assay.

By inhibition is commonly meant the change of the read-out against control, counted positive when it falls. By Kd is commonly meant the constant that tells how readily two partners part at equilibrium. In general, Ki refers to a measure of affinity in units of concentration, obtained from inhibition or displacement. A lower Ki goes with a stronger hold on the target.

`Cc1cc2nc3c(=O)n(CC(=O)NCCCN)c(=O)nc-3n(C[C@H](O)[C@H](O)[C@H](O)CO)c2cc1C`: the inhibition in experiment [1] was 90%; in experiment [3], “Dose-dependent effect”. Binding in experiment [2] was put at a Kd of 35.5 µM.
For the compound `Cc1cc2nc3c(=O)[nH]c(=O)nc-3n(C)c2cc1C` [LUMIFLAVIN], in experiment [4], the Kd turned out to be 61 nM.
For `Cc1cc2nc3c(=O)[nH]c(=O)nc-3n(C[C@H](O)[C@H](O)[C@H](O)CO)c2cc1C` [RIBOFLAVIN], the Kd in experiment [5] turned out to be 6.6 nM; in experiment [6], 46 nM; in experiment [7], 34 nM; in experiment [4], 5 nM. In experiment [8], the inhibitory constant (Ki) was found to be 350 nM.
